In patent publication US20230167088A1, “1-PYRAZINYLPYRAZOLYL-3-OXYALKYL ACIDS AND THEIR DERIVATIVES, AND THEIR USE FOR CONTROL OF UNDESIRED PLANT GROWTH” (BAYER AKTIENGESELLSCHAFT, priority 2020, published 2023):

Columns and labels:
[1] = test system: MATIN; test: Herbicidal post-emergence action 1a (greenhouse pots, visual rating); assay type: in vivo, Matricaria inodora; conditions: visual rating about 3 weeks after treatment
Method in brief: (§1)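 Weeds and crops sown in sandy loam in greenhouse pots were sprayed post-emergence at the one-leaf stage (2–3 weeks after sowing) with WP or EC formulations plus 0.5% additive at 600 l/ha water, 320 and/or 80 g/ha. About 3 weeks later damage was rated visually against untreated controls (0% = no effect, 100% = dead).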

[2] = test system: LOLRI; test: as above; assay type: in vivo, Lolium rigidum; conditions: rated visually about 3 weeks after treatment, 100% = plants have died, 0% = like control plants
Method in brief: as §1

[3] = test system: AMARE; test: Herbicidal pre-emergence action 2a (greenhouse pots, visual scoring); assay type: in vivo, Amaranthus retroflexus; conditions: dosage 320 g/ha, visual scoring after about 3 weeks vs untreated controls
Method in brief: (§2)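 The soil covering sown seeds is treated with an aqueous suspension or emulsion of wettable powder or emulsion concentrate (0.5% additive, 600 l/ha), corresponding to 320 g/ha and/or 80 g/ha. After about 3 weeks of greenhouse growth, damage is scored visually as a percentage.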

[4] = test system: STEME; test: Herbicidal pre-emergence action 2b (doubly sown, 1280 g/ha); assay type: in vivo, Stellaria media; conditions: doubly sown pots, dosage 1280 g/ha, visual scoring after about 3 weeks
Method in brief: (§3)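 Pots of sandy loam doubly sown with one monocot and one dicot weed species, covered, then soil surface sprayed pre-emergence with WP or EC formulations plus 0.5% additive at 600 l/ha water. Greenhouse-grown about 3 weeks; activity scored visually as % versus untreated controls (100% = dead).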

[5] = test system: ALOMY; test: Herbicidal post-emergence action 1a (greenhouse pots, visual rating); assay type: in vivo, Alopecurus myosuroides; conditions: rated visually about 3 weeks after treatment, 100% = plants have died, 0% = like control plants
Method in brief: as §1

[6] = test system: POAAN; test: Herbicidal post-emergence action 1b (twin sowing, 1280 g/ha); assay type: in vivo, Poa annua; conditions: dosage 1280 g/ha, visual rating about 3 weeks after treatment
Method in brief: (§4)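 Twin-sown weeds in sandy loam, greenhouse-grown 2–3 weeks, sprayed post-emergence at one-leaf stage with WP/EC formulations plus 0.5% additive at 600 L/ha water. Damage rated visually about 3 weeks later versus untreated controls (100% = plants dead, 0% = like control).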

[7] = test system: POLCO; test: Herbicidal pre-emergence action 2a (greenhouse pots, visual scoring); assay type: in vivo, Polygonum convolvulus; conditions: dosage 320 g/ha, visual scoring after about 3 weeks vs untreated controls
Method in brief: as §2

[8] = test system: PHBPU; test: Herbicidal post-emergence action 1a (greenhouse pots, visual rating); assay type: in vivo, Pharbitis purpurea; conditions: visual rating about 3 weeks after treatment
Method in brief: as §1

[9] = test system: POAAN; test: Herbicidal pre-emergence action 2b (doubly sown, 1280 g/ha); assay type: in vivo, Poa annua; conditions: doubly sown pots, dosage 1280 g/ha, visual scoring after about 3 weeks
Method in brief: as §3

[10] = test system: VERPE; test: Herbicidal post-emergence action 1a (greenhouse pots, visual rating); assay type: in vivo, Veronica persica; conditions: visual rating about 3 weeks after treatment
Method in brief: as §1

[11] = test system: MATIN; test: Herbicidal pre-emergence action 2b (doubly sown, 1280 g/ha); assay type: in vivo, Matricaria inodora; conditions: doubly sown pots, dosage 1280 g/ha, visual scoring after about 3 weeks
Method in brief: as §3

[12] = test system: DIGSA; test: Herbicidal pre-emergence action 2a (greenhouse pots, visual scoring); assay type: in vivo, Digitaria sanguinalis; conditions: dosage 320 g/ha, visual scoring after about 3 weeks
Method in brief: as §2

[13] = test system: AMARE; test: Herbicidal post-emergence action 1a (greenhouse pots, visual rating); assay type: in vivo, Amaranthus retroflexus; conditions: visual rating about 3 weeks after treatment
Method in brief: as §1

[14] = test system: STEME; test: Herbicidal pre-emergence action 2a (greenhouse pots, visual scoring); assay type: in vivo, Stellaria media; conditions: dosage 320 g/ha, visual scoring after about 3 weeks vs untreated controls
Excerpt: (§5) [table] a) Seeds of monocotyledonous and dicotyledonous weed plants and crop plants are placed in plastic or organic plant pots and covered with soil. The compounds of the invention, formulated in the form of wettable powders (WP) or as emulsion concentrates (EC), are then applied onto the surface of the covering soil as aqueous suspension or emulsion with addition of 0.5% additive at a water application rate of 600 1/ha (converted). After the treatment, the pots are placed in a greenhouse and kept under good growth conditions for the trial plants. After about 3 weeks, the effect of the preparations is scored visually in comparison with untreated controls as percentages. For example, 100% activity=the plants have died, 0% activity=like control plants. Tables B1 to B15 below show the effects of selected compounds of the general formula (I) according to Tables 1 and 2 on various harmful plants and an application rate corresponding to 320 g/ha and/or 80 g/ha, which were obtained by the experimental procedure mentioned above.

[15] = test system: ECHCG; test: Herbicidal pre-emergence action 2b (doubly sown, 1280 g/ha); assay type: in vivo, Echinochloa crus-galli; conditions: doubly sown pots, dosage 1280 g/ha, visual scoring after about 3 weeks
Method in brief: as §3

[16] = test system: VIOTR; test: Herbicidal post-emergence action 1a (greenhouse pots, visual rating); assay type: in vivo, Viola tricolor; conditions: dosage 320 g/ha, visual rating about 3 weeks after treatment
Method in brief: as §1

[17] = test system: STEME; test: Herbicidal post-emergence action 1b (twin sowing, 1280 g/ha); assay type: in vivo, Stellaria media; conditions: dosage 1280 g/ha, visual rating about 3 weeks after treatment
Method in brief: as §4

[18] = test system: ALOMY; test: Herbicidal pre-emergence action 2a (greenhouse pots, visual scoring); assay type: in vivo, Alopecurus myosuroides; conditions: dosage 320 g/ha, visual scoring after about 3 weeks
Method in brief: as §2

[19] = test system: LOLRI; test: as above; assay type: in vivo, Lolium rigidum; conditions: dosage 320 g/ha, visual scoring after about 3 weeks vs untreated controls
Method in brief: as §2

[20] = test system: MATIN; test: as above; assay type: in vivo, Matricaria inodora; conditions: dosage 320 g/ha, visual scoring after about 3 weeks vs untreated controls
Method in brief: as §2

[21] = test system: MATIN; test: Herbicidal post-emergence action 1b (twin sowing, 1280 g/ha); assay type: in vivo, Matricaria inodora; conditions: dosage 1280 g/ha, visual rating about 3 weeks after treatment
Method in brief: as §4

[22] = test system: STEME; test: Herbicidal post-emergence action 1a (greenhouse pots, visual rating); assay type: in vivo, Stellaria media; conditions: Dosage 320 g/ha; rated visually about 3 weeks after treatment; 100% = plants have died, 0% = like control plants
Description: [table] a) Seeds of monocotyledonous and dicotyledonous weeds and crop plants are placed in sandy loam in plastic or organic plant pots, covered with soil and cultivated in a greenhouse under controlled growth conditions. 2 to 3 weeks after sowing, the test plants are treated at the one-leaf stage. The compounds of the invention, formulated in the form of wettable powders (WP) or as emulsion concentrates (EC), are then sprayed onto the green parts of the plants as aqueous suspension or emulsion with addition of 0.5% additive at a water application rate of 600 1/ha (converted). After the test plants have been kept in the greenhouse under optimum growth conditions for about 3 weeks, the activity of the preparations is rated visually in comparison to untreated controls. For example, 100% activity=the plants have died, 0% activity=like control plants. Tables A1 to A15 below show the effects of selected compounds of the general formula (I) according to Tables 1 and 2 on various harmful plants and an application rate corresponding to 320 g/ha and/or 80 g/ha, which were obtained by the experimental procedure mentioned above.

[23] = test system: VERPE; test: Herbicidal pre-emergence action 2a (greenhouse pots, visual scoring); assay type: in vivo, Veronica persica; conditions: dosage 320 g/ha, visual scoring after about 3 weeks vs untreated controls
Method in brief: as §2

[24] = test system: AMARE; test: Herbicidal pre-emergence action 2b (doubly sown, 1280 g/ha); assay type: in vivo, Amaranthus retroflexus; conditions: doubly sown pots, dosage 1280 g/ha, visual scoring after about 3 weeks
Method in brief: as §3

[25] = test system: POLCO; test: Herbicidal post-emergence action 1a (greenhouse pots, visual rating); assay type: in vivo, Polygonum convolvulus; conditions: visual rating about 3 weeks after treatment
Method in brief: as §1

[26] = test system: ECHCG; test: as above; assay type: in vivo, Echinochloa crus-galli; conditions: rated visually about 3 weeks after treatment, 100% = plants have died, 0% = like control plants
Method in brief: as §1

[27] = test system: SETVI; test: Herbicidal pre-emergence action 2a (greenhouse pots, visual scoring); assay type: in vivo, Setaria viridis; conditions: dosage 320 g/ha, visual scoring after about 3 weeks vs untreated controls
Method in brief: as §2

[28] = test system: AVEFA; test: Herbicidal post-emergence action 1a (greenhouse pots, visual rating); assay type: in vivo, Avena fatua; conditions: rated visually about 3 weeks after treatment, 100% = plants have died, 0% = like control plants
Method in brief: as §1

[29] = test system: AVEFA; test: Herbicidal pre-emergence action 2a (greenhouse pots, visual scoring); assay type: in vivo, Avena fatua; conditions: dosage 320 g/ha, visual scoring after about 3 weeks
Method in brief: as §2

[30] = test system: ABUTH; test: Herbicidal post-emergence action 1a (greenhouse pots, visual rating); assay type: in vivo, Abutilon theophrasti; conditions: visual rating about 3 weeks after treatment
Method in brief: as §1

[31] = test system: PHBPU; test: Herbicidal pre-emergence action 2a (greenhouse pots, visual scoring); assay type: in vivo, Pharbitis purpurea; conditions: dosage 320 g/ha, visual scoring after about 3 weeks vs untreated controls
Method in brief: as §2

[32] = test system: ECHCG; test: as above; assay type: in vivo, Echinochloa crus-galli; conditions: dosage 320 g/ha, visual scoring after about 3 weeks
Method in brief: as §2

[33] = test system: SETVI; test: Herbicidal post-emergence action 1a (greenhouse pots, visual rating); assay type: in vivo, Setaria viridis; conditions: rated visually about 3 weeks after treatment, 100% = plants have died, 0% = like control plants
Method in brief: as §1

[34] = test system: ABUTH; test: Herbicidal pre-emergence action 2a (greenhouse pots, visual scoring); assay type: in vivo, Abutilon theophrasti; conditions: dosage 320 g/ha, visual scoring after about 3 weeks vs untreated controls
Excerpt: as §5

Row | SMILES | Post-emergence action against MATIN in % ([1]; dosage 80 g/ha) | Post-emergence action against MATIN in % ([1]; dosage 320 g/ha) | Post-emergence action against LOLRI in % ([2]; Dosage 320 g/ha) | Pre-emergence action against AMARE in % [3] | Post-emergence action against ALOMY in % ([5]; Dosage 320 g/ha) | Pre-emergence action against POLCO in % [7] | Post-emergence action against PHBPU in % ([8]; dosage 80 g/ha) | Post-emergence action against PHBPU in % ([8]; dosage 320 g/ha) | Post-emergence action against VERPE in % ([10]; dosage 320 g/ha) | Post-emergence action against AMARE in % ([13]; dosage 80 g/ha) | Post-emergence action against AMARE in % ([13]; dosage 320 g/ha) | Pre-emergence action against ALOMY in % [18] | Pre-emergence action against LOLRI in % [19] | Pre-emergence action against MATIN in % [20] | Pre-emergence action against VERPE in % [23] | Post-emergence action against POLCO in % ([25]; dosage 80 g/ha) | Post-emergence action against POLCO in % ([25]; dosage 320 g/ha) | other results
1 | O=C(O)COc1nn(-c2cnccn2)c(-c2cccc(F)c2)c1Br [Example I-04] | 80% | 90% | 80% | 100% | 90% | 90% | 80% | 80% | 80% | 90% | 90% | 80% | 90% | 90% | 90% | 80% | 90% | Pre-emergence action at 1280 g/ha against STEME in % [4]: 100%; Post-emergence action at 1280 g/ha against POAAN in % [6]: 90%; Pre-emergence action at 1280 g/ha against POAAN in % [9]: 100%; Pre-emergence action at 1280 g/ha against MATIN in % [11]: 100%; Pre-emergence action against DIGSA in % [12]: 90%; Pre-emergence action against STEME in % [14]: 90%; Pre-emergence action at 1280 g/ha against ECHCG in % [15]: 100%; Post-emergence action against VIOTR in % [16]: 80%; Post-emergence action at 1280 g/ha against STEME in % [17]: 100%; Post-emergence action at 1280 g/ha against MATIN in % [21]: 90%; Post-emergence action against STEME in % [22]: 80%; Pre-emergence action at 1280 g/ha against AMARE in % [24]: 100%
2 | COC(=O)[C@@H](C)Oc1nn(-c2cnccn2)c(-c2cncc(F)c2)c1Cl [Example I-95] | 80% | 90% | 90% | 100% | 100% | 100% | 90% | 90% | 90% | 90% | 90% | 100% | 100% | 100% | 100% | 90% | 90% | Post-emergence action against LOLRI in % ([2]; Dosage 80 g/ha): 90%; Post-emergence action against ECHCG in % ([26]; Dosage 80 g/ha): 90%; Post-emergence action against ECHCG in % ([26]; Dosage 320 g/ha): 90%; Pre-emergence action against SETVI in % [27]: 100%; Post-emergence action against ALOMY in % ([5]; Dosage 80 g/ha): 100%; Post-emergence action against AVEFA in % ([28]; Dosage 80 g/ha): 80%; Post-emergence action against AVEFA in % ([28]; Dosage 320 g/ha): 90%; Pre-emergence action against AVEFA in % [29]: 90%; Post-emergence action against VERPE in % ([10]; dosage 80 g/ha): 90%; Post-emergence action against ABUTH in % ([30]; dosage 80 g/ha): 90%; Post-emergence action against ABUTH in % ([30]; dosage 320 g/ha): 90%; Pre-emergence action against PHBPU in % [31]: 90%; Pre-emergence action against ECHCG in % [32]: 100%; Post-emergence action against SETVI in % ([33]; Dosage 80 g/ha): 90%; Post-emergence action against SETVI in % ([33]; Dosage 320 g/ha): 90%; Pre-emergence action against ABUTH in % [34]: 90%
